The results in this text go back to patent US20140148498A1, “METHODS AND COMPOSITIONS FOR THE TREATMENT OF MARFAN SYNDROME AND ASSOCIATED DISORDERS” (THE JOHNS HOPKINS UNIVERSITY, priority 2011, published 2014).

This experiment has as its system ERK1/2. The experiment is described as follows: Western blot of proximal ascending aorta: ERK1/2 activation (Examples 6-8). The class given is in vivo, mice. As to conditions: Fbn1^C1039G/+ mice, compared with placebo-treated littermates, FIG. 16B. An excerpt: All mice were cared for under strict compliance with the Animal Care and Use Committee of the Johns Hopkins University School of Medicine. The Smad4 haploinsufficient mice were a generous gift from Dr. Chuxia Deng (NIH/NIDDK, Bethesda). The Fbn1^C1039G/+ line was maintained on a C57BL/6 background, allowing for valid comparisons. In order to further accommodate the potential for temporal- or background-specific variation in genetic or pharmacological manipulation experiments, all comparisons were made between contemporary littermates. Mice were checked daily for death and all mice found dead were immediately necropsied to assess for evidence of aortic dissection. Mice were killed with an inhalation overdose of halothane (Sigma-Aldrich, St. Louis). Mice underwent immediate laparotomy, descending abdominal aortic transection, and PBS (pH 7.4) infusion through the left ventricle to flush out the blood. For Western blot analysis, the proximal ascending aorta (root to right brachiocephalic trunk) was removed, flash frozen in liquid nitrogen and stored at −80° C. Following PBS infusion, mice analyzed for aortic histology had latex injected under low pressure into the left ventricular apex until it was visible in the descending abdominal aorta. The mice were then fixed for 24 hours in 10% buffered formalin, after which the heart and aorta were removed and stored in 70% ethanol.
Mouse monoclonal TGFβNAb (1d11; R&D Systems, Minneapolis) was reconstituted in PBS and administered via intraperitoneal injection 3 times a week at a dose of 5 mg/kg. Treatment was initiated at 1 month of age and continued for 2 months. IgG (Zymed Laboratories Inc, San Francisco) was reconstituted in PBS, and administered at a dose of 10 mg/kg as a control. […]
Protein was extracted using the reagents and protocol from a Total Protein Extraction Kit, in conjunction with a Protein Phosphatase Inhibitor Cocktail (Millipore, MA). […] Equal protein loading of samples was determined by a protein assay (BioRad, CA) and confirmed by probing with antibodies against β-Actin or GAPDH (Sigma, Mo.). […]
On the technique in general: Immunoblotting shows a protein as a band on a membrane.

As for `CCCCc1nc(Cl)c(CO)n1Cc1ccc(-c2ccccc2-c2nn[nH]n2)cc1` [losartan], the ERK1/2 activation result was “significant reduction in ERK1/2 activation”.
